From patent US12171744B2, “Pharmaceutical combinations for the treatment of cancer” (Presage Biosciences, Inc., priority 2016, dated 2024) come the findings set out here.

Experiment [1] concerns NudHL1 DLBCL xenografts. The experiment in a line: CIVO microinjection, CC3 staining after 6 hours. The experiment is classed as in vivo, mice. The note with it: treated for 6 hours. The method, then:
Mice were enrolled into CIVO drug studies when the tumor volume reached approximately 1000 mm^3. Microinjection studies were performed using the CIVO device as previously described (Klinghoffer et al, Science Translational Medicine 2015) The device was configured with 6 injection needles set for a 6 mm injection length and a total volume delivery of 3 μl. A fluorescent tracking marker (FTM) was added to each drug reservoir in vehicle for delivery along with each drug or drug combination. […] Total amounts of agents injected are tabulated below in Table 4.
FIGS. 9A-9D depict cells that were treated as above and stained for cleaved caspase-3 (CC3) as a marker of apoptosis (shown in red).
FIGS. 10A-10D depict cells that were treated as above and stained for cleaved caspase-3 (CC3) as a marker of apoptosis (shown in red).

The test system of experiment [2] is SU-DHL-4 model of DLBCL. Briefly: Western blot of treated cells. The experiment is classed as cell-based. The method, then:
Cell lines shown in Table 1, adherent or suspension, were treated in 6-well dishes or T10 flasks respectively, seeded at one million per ml density prior to treatment in total volumes of 3-10 ml. All agents used for in vitro cell treatments were formulated in water/DMSO to achieve required concentrations (as stated in respective figure labels/legends) with DMSO concentrations not exceeding 0.01%. Drug sources are indicated in table under ‘CIVO microinjection studies’. Cells were harvested at experimental time points: 2, 6, or 24 hours post treatment as indicated in respective figures, first by washing cells twice in ice-cold PBS in 15 ml falcon tubes, centrifugation at 1000 rpm for 5 mins followed by lysis of the respective cell pellets as described in section below. Note: Drug resistant NUDHL1 Dox 1000 nM and Toledo Dox 1000 nM cell lines were generated at Presage by culturing parental lines in media with stepwise increments in Doxorubicin concentration over several passages. These cells were used to generate xenografts when resistance to 1 uM Dox was achieved.
Protein lysates were prepared by adding ice-cold 1×RIPA Buffer (from 10×, Millipore) with 1×-3× Halt protease and phosphatase inhibitor cocktail (100×, Pierce) to cell pellets, followed by pulse sonication (˜3-5 secs) three times. Lysates were cleared by centrifugation at 14K rpm for 15-20 mins and the supernatant (lysate) was collected for further analysis. To prepare lysates from cryopreserved xenograft tumor tissue, tissue was first homogenized using a hand-held tissue homogenizer (Cole Palmer) in above lysis buffer followed by pulse sonication and centrifugation as described above. Above steps were carried out under ice cold conditions. Protein samples were quantified using Bradford assay (Biorad) at 1:10 or higher dilutions using appropriate blank controls with 1×RIPA. 20-25 micrograms of protein from each sample were subject to SDS-PAGE using BOLT 4-12% Bis-Tris gels (Thermofisher) and transferred to either 0.45 or 0.2 micron pore size membranes (as applicable based on protein molecular size), and either nitrocellulose (NC) or pvdf (Thermofisher) using manufacturer's protocol, blocked for one hour in 5% milk at room temperature, probed with primary antibodies (Table 2) at 4 deg C. overnight and corresponding HRP-conjugated secondary antibodies (Jackson Immunoresearch, 1:10,000-1:20,000 dilutions) for 1 hour at room temperature. Three PBS/0.01% Tween-20 washes (5-10 mins each) were carried out after each antibody incubation. ECL chemiluminescent substrate (Pierce or GE) and autoradiographic film (Thermofisher) was used for detection of protein signals.
Cleaved PARP (cPARP) may be used as a biomarker of apoptosis. […] Cells were exposed to drug for 24 h prior to cell lysis and examination by Western Blot using antibodies specific for the cleaved form of PARP, MCL-1, C-MYC, and Beta actin (as a protein loading control) of FIG. 22A and BCL2 as an additional protein loading control in FIG. 22B.
Cleaved PARP (cPARP) may be used as a biomarker of apoptosis. To assess combination efficacy of the two agents of voruciclib and venetoclax together, low doses of each were examined as single agents or as a combination in the three models of DLBCL. Cells were exposed to drug for 24 h prior to cell lysis and examination by Western Blot using antibodies specific for the cleaved form of PARP and Beta actin (as a protein loading control).
FIG. 33 illustrates that voruciclib-induced apoptosis correlates with repression of MCL-1. Three DLBCL models were used: SUDHL4, RIvA, and U2932. Cleaved PARP (cPARP) may be used as a biomarker of apoptosis.
A general note: A western blot detects proteins with antibodies after separation by electrophoresis.

In experiment [3] the target is ICK (Homo sapiens, UniProt Q9UPZ9). The experiment in a line: Kinase inhibition profile. The experiment is classed as biochemical.
ICK, sequence (Q9UPZ9 whole entry): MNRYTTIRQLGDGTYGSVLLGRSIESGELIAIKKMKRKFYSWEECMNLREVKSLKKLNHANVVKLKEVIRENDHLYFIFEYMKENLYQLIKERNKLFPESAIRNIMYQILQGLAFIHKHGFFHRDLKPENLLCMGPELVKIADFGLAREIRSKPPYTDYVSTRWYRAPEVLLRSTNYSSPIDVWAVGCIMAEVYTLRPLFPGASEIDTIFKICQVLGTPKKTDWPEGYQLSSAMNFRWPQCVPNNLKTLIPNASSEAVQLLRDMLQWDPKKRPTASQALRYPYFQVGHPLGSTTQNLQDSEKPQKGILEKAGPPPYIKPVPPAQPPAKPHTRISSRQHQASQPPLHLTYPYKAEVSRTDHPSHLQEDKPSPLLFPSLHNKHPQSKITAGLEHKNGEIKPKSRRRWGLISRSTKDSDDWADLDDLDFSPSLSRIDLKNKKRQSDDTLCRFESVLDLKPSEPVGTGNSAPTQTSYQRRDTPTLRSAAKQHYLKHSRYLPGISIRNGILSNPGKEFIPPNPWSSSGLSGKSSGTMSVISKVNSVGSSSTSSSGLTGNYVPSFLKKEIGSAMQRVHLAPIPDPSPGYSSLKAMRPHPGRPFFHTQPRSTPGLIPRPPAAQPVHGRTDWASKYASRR
Experiment [4] deals with SUDHL4 model of DLBCL. Briefly: Xenograft tumor growth and Western blot of tumors. The experiment is classed as in vivo, NOD SCID mice. The protocol: Protein lysates were prepared by adding ice-cold 1×RIPA Buffer (from 10×, Millipore) with 1×-3× Halt protease and phosphatase inhibitor cocktail (100×, Pierce) to cell pellets, followed by pulse sonication (˜3-5 secs) three times. Lysates were cleared by centrifugation at 14K rpm for 15-20 mins and the supernatant (lysate) was collected for further analysis. To prepare lysates from cryopreserved xenograft tumor tissue, tissue was first homogenized using a hand-held tissue homogenizer (Cole Palmer) in above lysis buffer followed by pulse sonication and centrifugation as described above. Above steps were carried out under ice cold conditions. Protein samples were quantified using Bradford assay (Biorad) at 1:10 or higher dilutions using appropriate blank controls with 1×RIPA. […]
Immune deficient NOD SCID mice were implanted with the SUDHL4 model of DLBCL. […] Drug effects were assessed via tumor volume measurements twice weekly by a technician blinded to the treatment of each subject in the study. […]

Experiment [5] concerns SKM1 AML xenografts. The experiment in a line: Xenograft tumor growth. The experiment is classed as in vivo, NOD SCID. Conditions: Voruciclib 200 mpk PO, ABT 199 10 mpk PO, 6 on/1 off; by day 22.
Experimental: Mice were enrolled for study when tumors reached an average volume of 150-200 mm^3. Tumor volume was calculated as V=length×width×height, all three dimensions measured using digital calipers along with body weight. Animals were removed from the study when—any one of the three measured dimensions of the tumor exceeding 2 cm, volume exceeding 2500 mm^3, ulceration or body weight loss greater than 20%.
Where [6] appears, read: 0.15 uM voruciclib, 20 nM venetoclax, 24 h.
Setting [7] is: increasing concentration of voruciclib, single agent.

As for `CN1CC[C@@H](c2c(O)cc(O)c3c(=O)cc(-c4ccc(C(F)(F)F)cc4Cl)oc23)[C@@H]1CO` (relative stereo) [voruciclib, (+)-trans-2-(2-Chloro-4-trifluoromethylphenyl)-5,7-dihydroxy-8-(2-hydroxymethyl-1-methylpyrrolidin-3-yl)-chromen-4-one], the CC3 expression result in experiment [1] is “little to no increase”. Moreover, the “venetoclax-induced MCL-1” value in experiment [2] (0.15 uM voruciclib with 20 nM venetoclax, 24 h) is “represses”. Also, in experiment [2] (setting [6]), the MCL-1 expression result is “maintains some efficacy for repressing” and the “apoptosis (cleaved PARP)” value was “neither compound induces apoptosis as a single agent”. In experiment [2] (setting [7]), the MCL-1 result is “suppresses” and the “apoptosis (cPARP)” value was “increases as the concentration of voruciclib increases”. Besides, in experiment [2] (voruciclib 1.5 uM, 24 h, Western blot), the MCL1 result is “suppresses”. Moreover, in experiment [3], the “inhibition of ICK” value was “does not show potent inhibition”. Further, the normalized tumor volume entry in experiment [4] (Voruciclib 200 mpk, Venetoclax 25 mpk, oral gavage 6 days of the week) is recorded as “increase in tumor volume”. In experiment [4] (Western blot of tumors, Day 26, 4 hours post treatment), the p53 entry was “restores”. The normalized tumor volume result in experiment [5] is on record as “slightly lower”.
